Where two headings read alike, the source gives them in different places.

Consider one compound from patent publication US9714213B2, “4-aminomethylbenzoic acid derivative” (TOA EIYO LTD., priority 2013, dated 2017).

One experiment has as its system rat ventral aorta. Put plainly: Blood vessel relaxation activity, phenylephrine-contracted rat ventral aorta ring specimen. As to conditions: relaxation of 1 μmol/L phenylephrine contraction; EC50 without ODQ / EC50 with 10 μmol/L ODQ. The method, then: A representative compound of the present invention was assayed for blood vessel relaxation activity according to the Test Example described below. In the assay, a rat (male, SD) was phlebotomized from the upper part of the heart under pentobarbital (30 mg/kg) anesthesia, and the ventral aorta was extracted. The connective tissue adhering around the blood vessel in the ventral aorta was removed in an ice-cooled Krebs-Henseleit solution (KH solution) (118 mmol/L sodium chloride, 4.7 mmol/L potassium chloride, 1.2 mmol/L magnesium sulfate, 1.2 mmol/L potassium dihydrogenphosphate, 25 mmol/L sodium hydrogen carbonate, 2.5 mmol/L calcium chloride and 10 mmol/L glucose, pH 7.4). Then, a ring specimen of 2 mm length was prepared, and fixed in 5 mL organ bath filled with the KH solution. The KH solution was maintained at 37° C., and a mixed gas of 95% O2 and 5% CO2 was ventilated. The specimen was stabilized with 1 g of the resting tension for 1 hour. In the meantime, the KH solution was exchanged twice. The tension of the specimen was recorded with a multichannel recorder through a pickup and an amplifier. After stabilization of the specimen, contraction was induced with 1 μmol/L phenylephrine (Phe), and cumulative administration of each compound (0.001, 0.01, 0.03, 0.1, 0.3, 1, 3, 10, 30, 100, 1000, 10000 nmol/L) was carried out. In the case of evaluation at the time of containing ODQ, 10 μmol/L ODQ was added 10 minutes before administration of Phe, and similar evaluation was performed.
EC50 value was calculated by Four-parameter Logistic Model with Assay Explorer (Accelrys, Inc.). Meanwhile, the solution of the test compound was prepared by dissolving the compound in DMSO to prepare solutions having the concentration of each test compound 1000 times higher than the final concentration.

The target in a further experiment is T1, human sGC (Homo sapiens, UniProt Q02153).
T1 construct: expressed in transfected cells; host or cells: CHO-K1 (Chinese hamster ovary) cells
T1 sequence (Q02153 1-619): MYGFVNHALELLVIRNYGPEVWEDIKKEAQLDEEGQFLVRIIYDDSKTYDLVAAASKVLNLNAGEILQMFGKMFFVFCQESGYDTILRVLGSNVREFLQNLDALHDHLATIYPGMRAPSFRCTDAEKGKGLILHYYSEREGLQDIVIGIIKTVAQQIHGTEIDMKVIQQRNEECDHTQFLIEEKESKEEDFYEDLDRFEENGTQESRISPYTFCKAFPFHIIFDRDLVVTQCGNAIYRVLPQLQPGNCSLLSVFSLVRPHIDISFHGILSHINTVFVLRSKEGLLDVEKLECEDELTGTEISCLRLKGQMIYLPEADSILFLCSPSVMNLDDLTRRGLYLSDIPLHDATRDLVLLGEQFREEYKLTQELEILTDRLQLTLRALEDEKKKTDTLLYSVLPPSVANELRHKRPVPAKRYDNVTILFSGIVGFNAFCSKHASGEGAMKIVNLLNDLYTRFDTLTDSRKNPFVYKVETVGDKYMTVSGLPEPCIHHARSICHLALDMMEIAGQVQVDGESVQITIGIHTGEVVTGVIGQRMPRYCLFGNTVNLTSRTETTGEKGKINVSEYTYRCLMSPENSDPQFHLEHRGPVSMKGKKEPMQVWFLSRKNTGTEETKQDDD
T1 sequence (Q02108 1-690 partner): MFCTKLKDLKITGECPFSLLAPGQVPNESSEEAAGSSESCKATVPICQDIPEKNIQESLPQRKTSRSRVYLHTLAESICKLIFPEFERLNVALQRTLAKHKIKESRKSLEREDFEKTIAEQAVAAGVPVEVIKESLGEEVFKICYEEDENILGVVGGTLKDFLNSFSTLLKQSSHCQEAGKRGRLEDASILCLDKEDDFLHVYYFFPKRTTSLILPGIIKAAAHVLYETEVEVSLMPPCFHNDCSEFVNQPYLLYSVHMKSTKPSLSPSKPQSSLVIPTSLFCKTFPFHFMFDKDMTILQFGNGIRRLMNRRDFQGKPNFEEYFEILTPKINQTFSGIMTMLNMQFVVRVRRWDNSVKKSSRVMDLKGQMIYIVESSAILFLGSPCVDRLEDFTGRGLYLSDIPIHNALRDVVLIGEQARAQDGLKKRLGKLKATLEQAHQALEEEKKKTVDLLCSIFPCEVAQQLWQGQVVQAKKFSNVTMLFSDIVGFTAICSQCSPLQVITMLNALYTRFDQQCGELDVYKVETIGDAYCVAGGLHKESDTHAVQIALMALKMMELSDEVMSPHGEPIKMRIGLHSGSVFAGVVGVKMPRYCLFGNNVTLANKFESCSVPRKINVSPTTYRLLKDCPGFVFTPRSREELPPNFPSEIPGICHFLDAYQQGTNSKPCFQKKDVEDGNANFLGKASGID
Nature of the experiment: Maximum effect of sGC activation (intracellular Ca2+, Fura2-AM) in CHO-K1 cells stably expressing human sGC and mouse CNGA2. Format: cell-based. The settings on record: increase rate of sGC activity vs DMSO control, test compound 10 μmol/L. The method, then:
For the assay, chinese hamster ovary cells (CHO-K1 cells) stably expressing both α and β subunits of human sGC and mouse cyclic nucleotide-gated channel (CNGA2) were used.
The CHO-K1 cells stably expressing human sGC and mouse CNGA2 was cultured at 37° C. on F-12 medium containing 10% (v/v) fetal bovine serum (FBS), penicillin (100 U/mL), streptomycin (100 μg/mL), G418 (250 μg/mL) and Zeocin (250 μg/mL). The cells were suspended in a culture medium, seeded on a 96 well plate, and then cultured at 37° C. for 24 hours. The cells were washed with Assay buffer 1 (140 mmol/L sodium chloride, 5 mmol/L potassium chloride, 0.5 mmol/L magnesium chloride, 0.01 mmol/L calcium chloride, 10 mmol/L glucose, 0.4 mmol/L magnesium sulfate, 10 mmol/L 4-(2-hydroxyethyl)piperazin-1-ylethanesulfonic acid and 125 μmol/L sulfinpyrazone, pH 7.4), and then added a solution containing Fura2-AM, a fluorescent Ca^2+ indicator, in Assay buffer 1 at […] concentration thereto as an indicator solution, and cultured at 37° C. for 60 minutes. The culture medium was removed, and the cells were washed with Assay buffer 1, and then added a solution containing the test compound thereto, and cultured at room temperature for 10 minutes. A plate was placed onto a fluorometer (FlexStation II, Molecular Devices), and the intracellular calcium concentration was determined as the ratio of fluorescent intensity, obtained from measurement using 340 nm and 380 nm as excitation wavelength and 510 nm as detection wavelength.
The solution of the test compound was prepared by dissolving each test compound in DMSO at 10 mmol/L, and then diluting the solution for the test concentration at 10 μmol/L with Assay buffer (140 mmol/L sodium chloride, 5 mmol/L potassium chloride, 0.5 mmol/L magnesium chloride, 1 mmol/L calcium chloride, 10 mmol/L glucose, 0.4 mmol/L magnesium sulfate, 10 mmol/L 4-(2-hydroxyethyl)piperazin-1-ylethanesulfonic acid, […] sulfinpyrazone, 100 μmol/L isobutyl methyl xanthine, and 10 μmol/L 1H-[1,2,4]-oxadiazol[4,3-a]quinoxaline-1-one (hereinafter, ODQ), pH 7.4). The evaluation in the absence of ODQ was performed similarly, except that ODQ was not added to Assay buffer 2. As a control solution, a DMSO solution was used instead of the test compound solution.
The activity of the test compound defined as the increase rate of the sGC activity (%) at the time of adding the solution of the test compound with respect to the sGC activity at the time of adding the control solution, was calculated by dividing the fluorescent intensity ratio at the time of adding the test compound by the fluorescent intensity ratio of the control solution, and subtracting the sGC activity at the time of adding the control solution (100%).
If sGC is activated in this assay, intracellular cGMP concentration increases and accordingly intracellular Ca^2+ concentration is increased by opening of CNGA2. Accordingly, sGC activation can be measured as the change of Ca^2+ concentration in the cell. […] Accordingly, it is possible to evaluate maximum sGC activation effect including heme-dependent activation in the absence of ODQ, and also possible to evaluate heme independent sGC activation effect in the presence of ODQ.

As usually defined, the Emax is the greatest response seen or fitted, relative to the assay's reference. As to `O=C(O)CCCCN(Cc1ccc(C(=O)O)cc1)C[C@H](OCc1ccc(CCc2ccccc2)cc1F)c1ccccc1` [Example 45, (−)-4-{[N-(4-Carboxybutyl)-N-[(2R)-2-[2-fluoro-4-(2-phenylethyl)benzyloxy]-2-phenylethyl]amino]methyl}benzoic acid], the “EC50 Ratio (ODQ−/ODQ+)” value in the experiment on rat ventral aorta worked out at 4.26. In addition, the Emax at 10 µM was determined as 123% at human sGC (10 μmol/L ODQ present, read-out: Emax (%) ODQ+ (Heme-independent)) and 109% at human sGC (absence of ODQ, read-out: Emax (%) ODQ− (Heme-dependent)).
